One series relates to BT474R tumor xenografts. The experiment in a line: Trastuzumab-resistant BT474R tumor xenograft model. Particulars: 7.5 mg/kg GO-203 intravenously each day for 21 days. It counts as in vivo, BALB/c nu/nu mice. As for the experimental part: FIGS. 5A-G. Targeting MUC1-C in trastuzumab-resistant cells suppresses HER3 activation and inhibits growth and clonogenic survival. (FIG. 5A) Lysates from the indicated SKBR3R (left) and BT474R (right) cells were immunoblotted (IB) with anti-p-HER3 and anti-HER3. (FIG. 5B) The indicated SKBR3R (left) and BT474R (right) cells were seeded at 4000 and 1000 cells per well, respectively, and incubated for 12 days. The colony number is expressed as the mean±s.e. of three replicates. (FIG. 5C) SKBR3R cells were treated with […] GO-203 for the indicated times. Lysates were immunoblotted with the indicated antibodies. (FIG. 5D) SKBR3R cells were left untreated (Control; CTL) or treated with […] GO-203 for the indicated times. Cell number (mean±s.e. of three determinations) was determined by Trypan blue staining. (FIG. 5E) BT474R cells were treated with […] GO-203 for the indicated times. Lysates were immunoblotted with the indicated antibodies. (FIG. 5F) BT474R cells were left untreated (Control; CTL) or treated with […] GO-203 for the indicated times. Cell number (mean±s.e. of three determinations) was determined by Trypan blue staining. […] The results are expressed as tumor volume (mean±s.e. for the eight mice in each group).
Trastuzumab-resistant BT474R tumor xenograft model. […] Tumor volumes were calculated as described (Raina et al., 2011).

The next series has as its system SKBR3 cells. It counts as cell-based, human. How it is done:
(§1) Cell culture. SKBR3 and BT474 cells were obtained from ATCC (Rockville, Md.). SKBR3 and BT474 were maintained in McCoy's 5a modified medium and Dulbecco's modified Eagle medium/Ham F12 (1:1) supplemented with 10% heat-inactivated FBS, 100 units/ml penicillin, […] streptomycin, and 2 mM L-glutamine. […] Cells were treated with GO-203 and CP-2 peptides (AnaSpec). […] Viability was determined by trypan blue exclusion.
(§2) Determination of IC50 and synergism. Cells were seeded on 96-well plates in 100 μl of growth medium at a density of 3000 cells per well. After 24 h, the cells were exposed to drugs in treatment medium for an additional 72 h. Cell viability was assessed using the alamar blue viability assay (Invitrogen). Triplicate wells of each treatment were analyzed and each experiment was done three times. The IC50 values were determined by nonlinear regression of the dose-response data using Prism 5.0 for Mac OSX (GraphPad Software). […] Cell viability was determined after treatment for 72 h. The combination index (CI) was calculated to determine the presence of synergism (CI<1) or antagonism (CI>1) using CalcuSyn software (Biosoft).

Another series concerns BT474 cells. It counts as cell-based, human. Particulars: 72 h. As for the experimental part: as §1, §2
The test system of the next series is SKBR3R cells. The experiment in a line: cells. The format is cell-based. Particulars: Homo sapiens, 72 h. How it is done:
as §1, §2
(§3) Assessment of drug interaction by Bliss independence. […] Using this equation, if the experimentally measured inhibition is greater than Ei, then the combination is synergistic.38 Plots were generated by Prism GraphPad software.

The test system of another series is BT474R cells. Description: cells. Particulars: for IC50: Homo sapiens, 72 h. It counts as cell-based, human. As for the experimental part:
as §1, §2, §3

Broadly, the IC50 is the concentration needed to halve the response being measured.

Read-outs that look alike come from different tables or passages of the source. Square brackets hold non-standard residues; d marks the D form. Peptide text beside a SMILES is read from it.

For `N=C(N)NCCC[C@@H](N)C(=O)N[C@H](CCCNC(=N)N)C(=O)N[C@H](CCCNC(=N)N)C(=O)N[C@H](CCCNC(=N)N)C(=O)N[C@H](CCCNC(=N)N)C(=O)N[C@H](CCCNC(=N)N)C(=O)N[C@H](CCCNC(=N)N)C(=O)N[C@H](CCCNC(=N)N)C(=O)N[C@H](CCCNC(=N)N)C(=O)N[C@H](CS)C(=O)N[C@H](CCC(N)=O)C(=O)N[C@H](CS)C(=O)N[C@H](CCCNC(=N)N)C(=O)N[C@H](CCCNC(=N)N)C(=O)N[C@H](CCCCN)C(=O)N[C@H](CC(N)=O)C(=O)O` [GO-203] (H-[dR][dR][dR][dR][dR][dR][dR][dR][dR][dC][dQ][dC][dR][dR][dK][dN]-OH), the weight loss result in the series on BT474R tumor xenografts was “no weight loss”. In addition, the IC50 in the series with SKBR3 cells was determined as 5900 nM; with BT474 cells, 10200 nM.
`CS(=O)(=O)CCNCc1ccc(-c2ccc3ncnc(Nc4ccc(OCc5cccc(F)c5)c(Cl)c4)c3c2)o1` [Lapatinib]: the IC50 with SKBR3R cells (read-out: Lapatinib (μM) IC50, SKBR3R cells, 72 h, lapatinib alone (Table 3)) is 1.36 µM; in the series on SKBR3R cells (read-out: Lapatinib (μM) IC50, SKBR3R cells, 72 h, lapatinib alone (Table 4)) it was 1.7 µM; in the series on SKBR3R cells (read-out: Lapatinib (μM) IC50 with GO-203, SKBR3R cells, 72 h, with 4 μM GO-203), 0.94 µM; in the series on SKBR3R cells (read-out: Lapatinib (μM) IC50 with Trastuzumab and GO-203, SKBR3R cells, 72 h, with 40 nM trastuzumab+4 μM GO-203), 0.93 µM; with SKBR3R cells (read-out: Lapatinib (μM) IC50 with Trastuzumab, SKBR3R cells, 72 h, with 40 nM trastuzumab), 1.5 µM; in the series with BT474R cells (read-out: Lapatinib (μM) IC50, BT474R cells, 72 h, lapatinib alone (Table 3)), 1.43 µM. The IC50 with BT474R cells (read-out: Lapatinib (μM) IC50, BT474R cells, 72 h, lapatinib alone (Table 4)) is 1.5 µM; in the series with BT474R cells (read-out: Lapatinib (μM) IC50 with GO-203, BT474R cells, 72 h, with 4 μM GO-203), 0.67 µM; in the series with BT474R cells (read-out: Lapatinib (μM) IC50 with Trastuzumab and GO-203, BT474R cells, 72 h, with 40 nM trastuzumab+4 μM GO-203), 0.22 µM; in the series on BT474R cells (read-out: Lapatinib (μM) IC50 with Trastuzumab, BT474R cells, 72 h, with 40 nM trastuzumab) it was 1.2 µM. Also, in the series on BT474R cells (BT474R cells, lapatinib IC50 alone vs with GO-203), the Fold change was found to be 2.13.

Values taken from patent publication US9789156B2, “Combination anti-human epidermal growth factor receptor 2 (anti-HER2) cancer therapy using mucin 1 (MUC1) peptides and hemotherapeutics” (DANA-FARBER CANCER INSTITUTE, INC., priority 2013, dated 2017).
